The results in this text go back to PubChem BioAssay AID2060350 (Molecular Pharmacology Branch, DTP, NCI, 2025).

Structures are written as SMILES. Values joined by “and” are separate entries in the source; they are usually repeats but may differ in a detail not shown here. Equal entries are not always repeated.

The assay deals with PDC 521955-158-R6-J3 spheroids, viability. As to the kind of experiment: Anticancer human tumor 521955-158-R6-J3-PDC patient-derived pancreatic carcinoma cell line growth inhibition [TAK]. Particulars: spheroids with HUVEC and MSC; for viability, T/C: stronger effect = lower value. From the text: Combinatorial screen of targeted agents with TAK-243 and ipatasertib in multi-cell type tumor spheroids
A high-throughput screen of multi-cell type tumor spheroids was designed to identify active combinations of targeted small molecules and TAK-243 or ipatasertib. Complex spheroids include a stromal component modeled by human endothelial cells (HUVEC) and fibroblasts modeled by human mesenchymal stem cells (MSCs). The concentration ranges selected for each drug and investigational agent were based upon clinically achievable concentrations if the clinical Cmax of the agent was known.
Compounds. The drugs and investigational agents: TAK-243 (785004), ipatasertib (767898), everolimus (733504), selumetinib (741078), bortezomib (756655), trametinib (758246), ixazomib (758254), vemurafenib (761431), dabrafenib (764134), sapanisertib (764658), alpelisib (765974), and copanlisib (816437), were obtained from the National Cancer Institute (NCI) Developmental Therapeutics Program Chemical Repository. The FDA-approved anticancer drug set is available from the NCI Developmental Therapeutics Program. […] The stock solutions were prepared in dimethyl sulfoxide (DMSO, Sigma-Aldrich, St. Louis, MO, cat. D2650) at 800-fold the tested concentration and stored at -70 degrees C prior to their use. All drugs and investigational agents were tested over a range starting from a high concentration at or near the clinical Cmax and decreasing in half-log increments. If the clinical Cmax for an agent had not been determined, the highest concentration tested was 10 microM.
NCI60 Cell Culture. NCI60 cell lines were obtained from the NCI Developmental Therapeutics Program Tumor Repository. For each lot of cells, the Repository performed Applied Biosystems AmpFLSTR Identifiler testing with PCR amplification to confirm consistency with the published Identifier STR profile for each cell line. Cells were kept in continuous culture for no more than 20 passages. The optimal seeding densities for each of the cell lines at each time point assessed were determined prior to performing the concentration response studies. Briefly, the NCI60 human tumor lines were grown as monolayers in RPMI 1640 medium supplemented with 10% FBS and 2 mmol/L L-glutamine.
An additional 2 lines were from the NCI60 cell line panel including melanomas, MALME-3M and SK-MEL-2. Pooled donor human umbilical vein endothelial cells (HUVEC, Lonza, cat. CC-2519) and human mesenchymal stem cells (hMSC, Lonza, cat. PT-2501) were purchased from Lonza (Walkersville, MD).
PDMR cell lines were grown in complete medium (DC medium): Dulbecco's modified Eagle's medium (DMEM)/F12 supplemented with 5% fetal bovine serum (FBS), 2 mM L-glutamine, 100 U/mL penicillin and 100 µg/ml streptomycin, 0.4 µg/ml hydrocortisone, 10 ng/ml epidermal growth factor (EGF) recombinant human protein, 24 µg/mL adenine, and 0.1 mg/mL primocin. During culture from frozen stock vials, PDMR cells were cultured in the same medium containing 10 µM Y-27632 (see Table 3). The PDCs were cultured in complete DMEM/F12 media without 10 microM Y-27632 dihydrochloride for at least two passages prior to the screen. The pooled donor HUVEC and hMSC were cultured in endothelial cell growth medium 2 (PromoCell, Heidelberg, Germany, cat. C-22011) and mesenchymal stem cell growth medium 2 (PromoCell, cat. C-28009), respectively. For all experiments, HUVEC and hMSC were used at passages </=5.
For the pre-screen, cell seeding densities were determined from a titration spanning the range from 5,000 to 313 cells per well. The mct-spheroids including 60% malignant cells, 25% HUVEC and 15% MSC dispensed as a mixture into U-bottom Ultra-Low Attachment 384-well plates (Corning, NY)
High-throughput Drug Combination Screening.
Prior to their inoculation into 384-well plates, malignant cells, HUVEC, and hMSC were removed from T flasks using TrypLE express (Thermo Fisher Scientific, cat. 12605036) and harvested by centrifugation for 5 min at 233 x g. […]
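Further: spheroids exposed to drugs for 7 days before readout.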

By viability, T/C is commonly meant the result in the treated group divided by that in the control group, in per cent. Broadly, the IC50 is the concentration needed to halve the response being measured. For `CC(=O)Nc1cccc(-n2c(=O)n(C3CC3)c(=O)c3c(Nc4ccc(I)cc4F)n(C)c(=O)c(C)c32)c1`, the viability, T/C is, setting by setting: (compound 94.9 pM) 98.2% and 112%; (compound 0.0003 µM) 100% and 90.8%; (compound 0.000949 µM) 98.2% and 92.1%; (compound 0.003 µM) 94.2% and 82%; (compound 0.00949 µM) 72.4% and 68.3%; (compound 0.03 µM) 47% and 47.1%. In addition, the IC50 (curve of compound) was 26.2 nM and 29.5 nM.

With `CC(C)(C)c1nc(-c2cccc(NS(=O)(=O)c3c(F)cccc3F)c2F)c(-c2ccnc(N)n2)s1`, the viability, T/C runs as follows: (compound 0.0316 µM) 111% and 97.3%; (compound 0.1 µM) 121% and 111%; (compound 0.316 µM) 135% and 114%; (compound 1 µM) 116% and 111%; (compound 3.16 µM) 108% and 98.3%; (compound 10 µM) 139% and 118%. For the same molecule, where the note is “curve of compound”, the IC50 is over 10000 nM.

For the molecule `CC(C)CC(NC(=O)C(Cc1ccccc1)NC(=O)c1cnccn1)B(O)O` (stereo not drawn), the viability, T/C by setting is: (compound 31.6 pM) 101% and 120%; (compound 0.0001 µM) 97.6% and 107%; (compound 0.000316 µM) 91.6% and 103%; (compound 0.001 µM) 108% and 93.6%; (compound 0.00316 µM) 111% and 87.4%; (compound 0.01 µM) 33.2% and 102%. Further, where the note is “curve of compound”, the IC50 is 7.56 nM and > 10 nM.

With `CC(C)CC(NC(=O)CNC(=O)c1cc(Cl)ccc1Cl)B1OC(=O)CC(CC(=O)O)(C(=O)O)O1` (stereo not drawn), the viability, T/C is, setting by setting: (compound 0.000316 µM) 105% and 101%; (compound 0.001 µM) 101% and 102%; (compound 0.00316 µM) 110% and 100%; (compound 0.01 µM) 114% and 107%; (compound 0.0316 µM) 75.9% and 69.7%; (compound 0.1 µM) 10.2% and 9.97%. Moreover, the IC50 (curve of compound) is 49.8 nM and 46.2 nM.

Regarding `CC(C)NCC(C(=O)N1CCN(c2ncnc3c2C(C)CC3O)CC1)c1ccc(Cl)cc1` (stereo not drawn), where the note is “compound 0.3 µM”, the viability, T/C was 93.8% [middle of 10 runs]. The IC50 was over 30000 nM (compound alone, run of 02/20/2020) and over 30000 nM (compound alone, run of 03/19/2020).

For the molecule `CC(C)n1nc(-c2ccc3oc(N)nc3c2)c2c(N)ncnc21`, the viability, T/C (compound 0.000316 µM) is 93.6% and 99.9%; the viability, T/C (compound 0.001 µM) is 95% and 91.3%; the viability, T/C (compound 0.00316 µM) was 86% and 98.5%; the viability, T/C (compound 0.01 µM) was 85.3% and 94.8%; the viability, T/C (compound 0.0316 µM) was 83.2% and 81.7%; the viability, T/C (compound 0.1 µM) was 73.8% and 70.4%. The IC50 (curve of compound) was over 100 nM.

`CCCS(=O)(=O)Nc1ccc(F)c(C(=O)c2c[nH]c3ncc(-c4ccc(Cl)cc4)cc23)c1F`: the viability, T/C is, setting by setting: (compound 0.316 µM) 92.9% and 82.9%; (compound 1 µM) 101% and 67%; (compound 3.16 µM) 88.1% and 85%; (compound 10 µM) 101% and 75%; (compound 31.6 µM) 109% and 51.8%; (compound 100 µM) 99.2% and 114%. The IC50 (curve of compound) is over 100000 nM.

With `COC1CC2CCC(C)C(O)(O2)C(=O)C(=O)N2CCCCC2C(=O)OC(C(C)CC2CCC(OCCO)C(OC)C2)CC(=O)C(C)C=C(C)C(O)C(OC)C(=O)C(C)CC(C)C=CC=CC=C1C` (stereo not drawn), the viability, T/C is 93.2% and 99% (compound 0.000316 µM); 107% and 78.7% (compound 0.001 µM); 105% and 85.4% (compound 0.00316 µM); 100% and 94.5% (compound 0.01 µM); 84.9% and 90.9% (compound 0.0316 µM); 84.3% and 82.4% (compound 0.1 µM). In addition, where the note is “curve of compound”, the IC50 is over 100 nM.

For the molecule `COc1c(OCCCN2CCOCC2)ccc2c3n(c(=NC(=O)c4cnc(N)nc4)nc12)CCN3`, the viability, T/C (compound 0.00316 µM) was 85.3% and 76.8%; the viability, T/C (compound 0.01 µM) is 79.2% and 62.1%; the viability, T/C (compound 0.0316 µM) was 61.2% and 49.2%; the viability, T/C (compound 0.1 µM) is 47.5% and 35.9%; the viability, T/C (compound 0.316 µM) is 30.7% and 23.5%; the viability, T/C (compound 1 µM) was 23.3% and 18.5%. Also, the IC50 (curve of compound) is 76.2 nM and 28.1 nM.

Regarding `Cc1nc(NC(=O)N2CCCC2C(N)=O)sc1-c1ccnc(C(C)(C)C(F)(F)F)c1` (stereo not drawn), the viability, T/C is, setting by setting: (compound 0.0316 µM) 82.3% and 93.5%; (compound 0.1 µM) 87.3% and 82%; (compound 0.316 µM) 73.3% and 81.9%; (compound 1 µM) 68.2% and 77.4%; (compound 3.16 µM) 72.5% and 67%; (compound 10 µM) 58.3% and 54.9%. For the setting “curve of compound”, the IC50 was over 10000 nM.

In the case of `Cn1cnc2c(F)c(Nc3ccc(Br)cc3Cl)c(C(=O)NOCCO)cc21`, the viability, T/C is 99.2% and 99.6% (compound 0.00949 µM); 88.9% and 88% (compound 0.03 µM); 77.6% and 83% (compound 0.0949 µM); 85.5% and 82.2% (compound 0.3 µM); 56.9% and 70.8% (compound 0.949 µM); 41.5% and 53.7% (compound 3 µM). Besides, the IC50 (curve of compound) is 1800 nM and > 3000 nM.
